Experiments:
Vaccinia = format: cell-based
Cowpox = format: cell-based

Structure (SMILES): Nc1ccn(C[C@@H](CO)OCP(=O)(O)O)c(=O)n1 [CDV]
- PR CDV EC90 (Vaccinia): 17 µg/mL
- PR CDV EC90 (Cowpox): 18.1 µg/mL

— patent publication US20050238655A1, “Antiviral activity from medicinal mushrooms” (priority 2004, published 2005)
